# Assay results as given in patent EP4737452A1, “NOVEL PYRIMIDINE DERIVATIVES” (Aigen Sciences Inc., priority 2023, dated 2025).
# Assays:
# MDA-MB-436 cells = assay: BRCA1 synthetic lethality assay, colony formation with crystal violet staining, BRCA1 mutant cells; format: cell-based; details: cultured for 21 days
# Experimental: (§1) In this experimental example, whether the compound according to the present invention had synthetic lethal efficacy with BRCA1 activity was tested by examining the colony formation of tumor cells. MDA-MB-436 cells (ATCC, #HTB-130), a triple-negative breast cancer cell line with reduced BRCA1 activity due to BRCA1 mutation, and MCF-10A cell line (ATCC, #CRL-10317), which has wild-type BRCA1/2 genes and is used as a model of normal breast cells, were cultured in their respective culture media (MDA-MB-436: L-15 +10 […] + 10% fetal bovine serum (FBS), MCF-10A: MEGM + 100 ng/mL cholera toxin), and then seeded in 6-well plates at a concentration of 10,000 cells per well for the MDA-MB-436 cells and 120 cells per well for the MCF-10A cell line. […] The crystal violet stained in the cells was extracted by treating the cells with 500 µL of 10% acetic acid for 20 minutes at room temperature for quantitative analysis. 150 µL of the extracted crystal violet was placed in two wells of a 96-well plate, and the absorbance was measured at 565 nm. The absorbance was quantified relative to the absorbance value of a blank sample containing only DMSO but not the compound of the present invention.
# MDA-MB-436 = assay: Cell survival analysis (CellTiter-Glo, 10 days culture); format: cell-based; details: Homo sapiens, 240 h; MDA-MB-436 cell line, cultured for 10 days, CellTiter-Glo; read-out: Cell growth IC50 grade
# Experimental: In this experimental example, the cell growth inhibitory effect of compounds according to the present invention and positive control compounds in tumor cell lines was examined.
# MDA-MB-436 (ATCC, #HTB-130) cell line was cultured in cell culture medium (Leibovitz's L-15 (GIBCO catalog no. 11415064) + 10 µg/mL insulin (Yeasen catalog no. 40112ES25) + 16 µg/mL glutathione (GIBCO catalog no. 25030-081) + 10% fetal bovine serum (FBS) (Excell Bio catalog no. FSP500)). 3,000 MDA-MB-436 cells were plated per well in a 96-well plate and cultured for 1 day at 37°C in 5% CO2. […] The cells were then cultured in a cell incubator for 10 days, and the cell culture medium containing the compound was replaced on the 5th day of culture. Cell survival rate was analyzed for luminescence using the Promega CellTiter-Glo Luminescent Cell Viability Assay Kit (Promega catalog number G7573), and the luminescence was measured using a PerkinElmer EnVision instrument. The percentage of cell growth inhibition rate was calculated from the measured relative luminescence unit (RLU) as follows. Inhibition rate = 1−((RLU compound−RLU blank)/(RLU control−RLU blank)) × 100 [formula]
# MCF-10A cell line = assay: BRCA1 synthetic lethality assay, colony formation with crystal violet staining, BRCA1/2 wild-type cells; format: cell-based
# Experimental: as §1
# USP1 enzyme = USP1 enzyme (Homo sapiens, UniProt O94782); assay: Biochemical analysis of USP1 enzyme activity (ubiquitin-rhodamine 110 deubiquitination, fluorescence); details: ubiquitin-rhodamine 110 substrate, 10 minutes pre-incubation, 30 minutes reaction at room temperature; read-out: Enzyme activity IC50 grade
# Experimental: In this experimental example, the inhibitory effect of the compounds according to the present invention and the positive control compound on USP1 deubiquitinating activity was tested using a biochemical enzymatic assay. Ubiquitin-rhodamine 110 was used as a substrate for measuring deubiquitinating activity. This substrate compound is a substance in which rhodamine 110 is linked to the glycine residue at the C-terminus of ubiquitin by an amide bond. When this amide bond is cleaved by the deubiquitinating activity, a fluorescent signal is counted.
# Subsequently, analytical buffer solution (50 mM hydroxyethylpiperazineethanesulfonic acid (HEPES) containing USP1 enzyme, 100 mM NaCl, 2 mM tris(2-carboxyethyl)phosphine (TCEP), and 100 µg/mL bovine serum albumin (BSA)) were added to each well of the plate and incubated at room temperature for 10 minutes. Subsequently, analytical y buffer solution containing ubiquitin-rhodamine 110 was added to each well and reacted at room temperature for 30 minutes.
# Chain of USP1 enzyme (O94782 whole entry): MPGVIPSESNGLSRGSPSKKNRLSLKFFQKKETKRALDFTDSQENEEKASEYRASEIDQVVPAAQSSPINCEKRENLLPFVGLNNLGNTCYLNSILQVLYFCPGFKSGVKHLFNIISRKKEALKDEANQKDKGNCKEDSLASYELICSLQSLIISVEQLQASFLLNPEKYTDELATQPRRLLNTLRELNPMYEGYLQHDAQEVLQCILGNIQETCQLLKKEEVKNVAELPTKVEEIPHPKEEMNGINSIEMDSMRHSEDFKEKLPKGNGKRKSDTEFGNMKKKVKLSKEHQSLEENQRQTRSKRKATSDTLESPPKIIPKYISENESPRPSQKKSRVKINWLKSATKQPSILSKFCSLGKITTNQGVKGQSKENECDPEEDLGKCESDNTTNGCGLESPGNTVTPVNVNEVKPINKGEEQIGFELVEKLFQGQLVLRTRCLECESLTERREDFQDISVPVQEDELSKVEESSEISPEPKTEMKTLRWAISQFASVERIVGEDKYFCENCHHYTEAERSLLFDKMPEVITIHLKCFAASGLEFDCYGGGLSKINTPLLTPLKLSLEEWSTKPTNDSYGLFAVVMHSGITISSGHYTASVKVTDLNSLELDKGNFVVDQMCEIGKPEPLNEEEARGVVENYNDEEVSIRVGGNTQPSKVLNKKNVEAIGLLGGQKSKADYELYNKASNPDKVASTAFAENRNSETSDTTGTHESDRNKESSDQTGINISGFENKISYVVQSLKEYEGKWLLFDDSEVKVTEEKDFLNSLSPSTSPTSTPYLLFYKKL
# Chain of USP1 enzyme (Q8TAF3 whole entry partner): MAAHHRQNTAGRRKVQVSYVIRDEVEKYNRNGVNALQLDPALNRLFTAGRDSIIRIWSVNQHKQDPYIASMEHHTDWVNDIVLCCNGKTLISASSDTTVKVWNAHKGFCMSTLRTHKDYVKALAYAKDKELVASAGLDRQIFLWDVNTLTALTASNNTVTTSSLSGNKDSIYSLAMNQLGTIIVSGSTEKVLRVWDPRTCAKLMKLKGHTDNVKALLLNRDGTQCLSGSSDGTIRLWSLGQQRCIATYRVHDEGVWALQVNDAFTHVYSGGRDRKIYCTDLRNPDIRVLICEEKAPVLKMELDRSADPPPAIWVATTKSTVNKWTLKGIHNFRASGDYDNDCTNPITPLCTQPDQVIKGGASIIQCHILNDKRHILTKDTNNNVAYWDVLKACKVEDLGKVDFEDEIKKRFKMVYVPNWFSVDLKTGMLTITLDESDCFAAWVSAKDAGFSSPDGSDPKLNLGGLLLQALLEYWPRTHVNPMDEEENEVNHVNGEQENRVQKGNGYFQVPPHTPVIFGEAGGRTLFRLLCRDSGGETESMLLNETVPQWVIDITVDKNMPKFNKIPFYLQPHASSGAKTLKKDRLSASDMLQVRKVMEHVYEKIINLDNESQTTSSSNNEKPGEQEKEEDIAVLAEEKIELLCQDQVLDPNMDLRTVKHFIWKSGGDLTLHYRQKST
structure (smiles),measurement,setting,value
"COc1cccc(C2CC2)c1-c1ncc(P(C)(C)=O)c(NCc2ccc(-c3nc(C(F)(F)F)cn3C)cc2)n1 [Example 1, (2-(2-cyclopropyl-6-methoxyphenyl)-4-((4-(1-methyl-4-(trifluoromethyl)-1H-imidazol-2-yl)benzyl)amino)pyrimidin-5-yl)dimethylphosphine oxide]",crystal violet extraction amount,"MDA-MB-436 cells; MDA-MB-436 cells with reduced BRCA1 activity, absorbance at 565 nm relative to DMSO blank, Fig. 1 A",less than one-fifth of that of the DMSO blank
same,colony formation,"MDA-MB-436 cells; MDA-MB-436 cells, compared with DMSO blank sample, Fig. 1 B",significantly reduced
same,IC50,MDA-MB-436,100 to 500 nM
same,crystal violet extraction amount,"MCF-10A cell line; MCF-10A cells with wild-type BRCA1/2, cultured for 21 days, absorbance at 565 nm relative to DMSO blank, Fig. 1 A",no different from that of the DMSO blank
same,colony formation,"MCF-10A cell line; MCF-10A cells, cultured for 21 days, compared with DMSO blank sample, Fig. 1 B",formed colonies at a normal level
same,IC50,USP1 enzyme,50 to 100 nM
